This note sets out measurements from patent publication US9371331B2, “Modulators of methyl modifying enzymes, compositions and uses thereof” (Constellation Pharmaceuticals, Inc., priority 2012, dated 2016).

One test has as its target EZH2 (rPRC2) (Homo sapiens, UniProt Q15910). The test can be described thus: EZH2 assay: rPRC2, biotinylated oligonucleosomes, 3H SAM methyl transfer (FlashPlate scintillation). Format: biochemical. Particulars: biotinylated oligonucleosome substrate.
For test [1], the system named is H3K27me3 mark in HeLa cells. The experiment in a line: H3K27me3 MSD Hela Assay. Format: cell-based. Particulars: Homo sapiens, read-out: H3K27me3_MSD_HeLa_ (EC50). The method in brief:
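HeLa cells treated with compound at various concentrations for 96 h at 37 °C, then lysed with high-salt extraction. H3K27me3 measured by MSD electrochemiluminescence immunoassay on total-H3 capture plates. Dose-dependent inhibition normalised to DMSO wells and fitted to curves.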

A further test addresses Y641N EZH2 (Homo sapiens, UniProt Q15910, Y641N). The test can be described thus: Y641N EZH2 assay: as EZH2 assay, with reconstituted H3K27Me2 oligonucleosomes as substrate. Format: biochemical.
Setting [2] is: EZH2 IC50, wild-type EZH2 (rPRC2).
[3] abbreviates: Y641N EZH2 IC50, Y641N mutant EZH2, H3K27Me2 oligonucleosome substrate.
Where [4] appears, read: wild-type EZH2 (rPRC2), read-out: EZH2 IC50.
The mark [5] stands for this setting: Y641N mutant EZH2, H3K27Me2 oligonucleosome substrate, read-out: Y641N EZH2 IC50.

Structures are written as SMILES. Like-named read-outs stand apart in the source and are kept apart here.

For orientation: IC50 means the point on the concentration scale where inhibition reaches its midpoint. In general, EC50 refers to the concentration giving half of the maximal effect.

Sequence of EZH2 (rPRC2) (Q15910 whole entry): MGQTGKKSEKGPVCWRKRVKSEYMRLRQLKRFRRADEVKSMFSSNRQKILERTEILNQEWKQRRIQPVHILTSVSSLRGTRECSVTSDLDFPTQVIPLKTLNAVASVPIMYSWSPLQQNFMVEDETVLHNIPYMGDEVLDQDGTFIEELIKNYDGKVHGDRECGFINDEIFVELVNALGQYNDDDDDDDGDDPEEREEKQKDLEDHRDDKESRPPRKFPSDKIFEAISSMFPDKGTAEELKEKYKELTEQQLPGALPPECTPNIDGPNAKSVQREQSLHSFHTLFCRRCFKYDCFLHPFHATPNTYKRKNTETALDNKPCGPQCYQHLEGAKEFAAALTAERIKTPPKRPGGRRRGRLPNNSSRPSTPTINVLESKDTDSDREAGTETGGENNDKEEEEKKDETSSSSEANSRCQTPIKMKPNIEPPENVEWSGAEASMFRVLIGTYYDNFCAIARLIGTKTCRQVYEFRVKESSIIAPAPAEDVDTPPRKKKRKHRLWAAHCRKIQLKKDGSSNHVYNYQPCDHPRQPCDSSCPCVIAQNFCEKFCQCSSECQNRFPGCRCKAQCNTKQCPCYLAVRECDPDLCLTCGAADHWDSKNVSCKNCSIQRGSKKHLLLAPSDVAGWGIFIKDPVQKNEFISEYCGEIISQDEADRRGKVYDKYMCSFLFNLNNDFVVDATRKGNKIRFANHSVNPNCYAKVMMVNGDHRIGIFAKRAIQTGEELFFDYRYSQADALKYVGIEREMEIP
Sequence of EZH2 (rPRC2) (O75530 whole entry partner): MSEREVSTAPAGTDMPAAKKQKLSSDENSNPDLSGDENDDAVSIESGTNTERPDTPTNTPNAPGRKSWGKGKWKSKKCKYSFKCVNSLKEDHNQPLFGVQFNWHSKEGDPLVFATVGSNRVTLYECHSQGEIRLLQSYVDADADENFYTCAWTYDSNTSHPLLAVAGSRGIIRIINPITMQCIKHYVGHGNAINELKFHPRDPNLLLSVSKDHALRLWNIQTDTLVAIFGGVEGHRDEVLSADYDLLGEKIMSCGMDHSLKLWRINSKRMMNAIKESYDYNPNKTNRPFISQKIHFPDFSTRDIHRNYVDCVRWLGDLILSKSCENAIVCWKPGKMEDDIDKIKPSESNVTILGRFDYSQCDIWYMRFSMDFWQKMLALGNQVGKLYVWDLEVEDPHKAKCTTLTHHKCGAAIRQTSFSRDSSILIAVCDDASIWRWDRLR
Sequence of EZH2 (rPRC2) (Q15022 whole entry partner): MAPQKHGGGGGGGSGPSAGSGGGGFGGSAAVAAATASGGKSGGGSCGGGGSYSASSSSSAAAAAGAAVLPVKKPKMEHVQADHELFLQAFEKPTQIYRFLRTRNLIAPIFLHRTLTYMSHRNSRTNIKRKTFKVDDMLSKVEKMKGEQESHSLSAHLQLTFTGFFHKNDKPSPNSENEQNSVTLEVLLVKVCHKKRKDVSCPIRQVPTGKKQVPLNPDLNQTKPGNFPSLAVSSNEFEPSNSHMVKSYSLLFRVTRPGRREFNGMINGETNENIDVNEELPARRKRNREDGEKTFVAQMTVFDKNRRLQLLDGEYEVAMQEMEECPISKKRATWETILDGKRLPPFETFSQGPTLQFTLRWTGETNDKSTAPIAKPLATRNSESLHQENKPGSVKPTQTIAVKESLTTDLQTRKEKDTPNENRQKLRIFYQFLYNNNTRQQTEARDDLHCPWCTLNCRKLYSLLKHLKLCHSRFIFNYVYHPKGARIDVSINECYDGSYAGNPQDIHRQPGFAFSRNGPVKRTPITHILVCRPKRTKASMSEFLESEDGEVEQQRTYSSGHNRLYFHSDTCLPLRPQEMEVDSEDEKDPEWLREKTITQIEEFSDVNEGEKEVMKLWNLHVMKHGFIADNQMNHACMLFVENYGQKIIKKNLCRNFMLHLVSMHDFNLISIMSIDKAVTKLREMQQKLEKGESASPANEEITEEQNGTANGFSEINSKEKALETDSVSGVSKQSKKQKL
Sequence of Y641N EZH2 (Q15910 whole entry Y641N): as the sequence (Q15910 whole entry) above, with Y641N counted along it
Sequence of Y641N EZH2 (O75530 whole entry partner): as the sequence (O75530 whole entry partner) above
Sequence of Y641N EZH2 (Q15022 whole entry partner): as the sequence (Q15022 whole entry partner) above

Consider `Cc1cc(C)c(CNC(=O)c2c(C)n([C@H](C)c3ccccc3)c3nc(N)ncc23)c(O)n1` [Compound 144, (R)-2-amino-N-((2-hydroxy-4,6-dimethylpyridin-3-yl)methyl)-6-methyl-7-(1-phenylethyl)-7H-pyrrolo[2,3-d]pyrimidine-5-carboxamide], for which the IC50 against EZH2 (rPRC2) (setting [2]) was less than 0.1 µM; at Y641N EZH2 (setting [3]) it was 0.1 to 1 µM. Besides, in test [1] (HeLa, 96 h), the EC50 was in the range of 2 to 10 µM.
For the compound `Cc1cc(C)c(CNC(=O)c2c(C)n(S(=O)(=O)c3ccccc3)c3ccccc23)c(O)n1` [Compound 145, N-((4,6-dimethyl-2-oxo-1,2-dihydropyridin-3-yl)methyl)-2-methyl-1-(phenylsulfonyl)-1H-indole-3-carboxamide], the IC50 on EZH2 (rPRC2) (setting [4]) is less than 0.1 µM; at Y641N EZH2 (setting [5]), 0.1 to 1 µM. For the same compound, in test [1] (HeLa, 96 h), the EC50 lay in the range of 2 to 10 µM.
In the case of `Cc1cc(C)c(CNC(=O)c2c(C)n([C@H](C)c3ccccc3)c3nc(N4CCNCC4)ncc23)c(O)n1` [Compound 169, (R)-N-((2-hydroxy-4,6-dimethylpyridin-3-yl)methyl)-6-methyl-7-(1-phenylethyl)-2-(piperazin-1-yl)-7H-pyrrolo[2,3-d]pyrimidine-5-carboxamide], the IC50 was less than 0.1 µM on EZH2 (rPRC2) (setting [4]) and 0.1 to 1 µM on Y641N EZH2 (setting [5]). In addition, in test [1] (HeLa cells, MSD, 96 hours), the EC50 is greater than 10 µM.
Take `Cc1ccc(C)c(-n2c(C)c(C(=O)NCc3c(C)cc(C)[nH]c3=O)c3ccccc32)c1` [Compound 191, N-((4,6-dimethyl-2-oxo-1,2-dihydropyridin-3-yl)methyl)-1-(2,5-dimethylphenyl)-2-methyl-1H-indole-3-carboxamide]: the IC50 at EZH2 (rPRC2) (setting [4]) and at Y641N EZH2 (setting [5]) was less than 0.1 µM in each case. Further, in test [1] (HeLa cells, MSD, 96 hours), the EC50 fell in the range of 2 to 10 µM.
Take `COCC(C)n1c(C)c(C(=O)NCc2c(OC)cc(C)[nH]c2=O)c2ccccc21` (stereo not drawn) [Compound 219, N-((4-methoxy-6-methyl-2-oxo-1,2-dihydropyridin-3-yl)methyl)-1-(1-methoxypropan-2-yl)-2-methyl-1H-indole-3-carboxamide]: the IC50 at EZH2 (rPRC2) (setting [2]) and against Y641N EZH2 (setting [3]) was less than 0.1 µM throughout. For the same compound, in test [1] (HeLa, 96 h), the EC50 was in the range of 0.4 to 2 µM.
As to `COC(C)C(C)n1c(C)c(C(=O)NCc2c(C)cc(C)[nH]c2=O)c2cccnc21` (stereo not drawn) [Compound 241, N-((4,6-dimethyl-2-oxo-1,2-dihydropyridin-3-yl)methyl)-1-(3-methoxybutan-2-yl)-2-methyl-1H-pyrrolo[2,3-b]pyridine-3-carboxamide], the IC50 is less than 0.1 µM against EZH2 (rPRC2) (setting [2]) and 0.1 to 1 µM at Y641N EZH2 (setting [3]). Also, the EC50 in test [1] (HeLa, 96 h) was in the range of 0.4 to 2 µM.
The corresponding values for `COc1cc(C)[nH]c(=O)c1CNC(=O)c1c(C)n(C(C)C(OC)C2CC2)c2ncccc12` (stereo not drawn) [Compound 283, 1-(1-cyclopropyl-1-methoxypropan-2-yl)-N-((4-methoxy-6-methyl-2-oxo-1,2-dihydropyridin-3-yl)methyl)-2-methyl-1H-pyrrolo[2,3-b]pyridine-3-carboxamide] are less than 0.1 µM, 0.1 to 1 µM and 0.4 to 2 µM.
Consider `COC[C@@H](C)n1c(C)c(C(=O)NCc2c(OC)cc(C)[nH]c2=O)c2cncnc21` [Compound 303, (R)-N-((4-methoxy-6-methyl-2-oxo-1,2-dihydropyridin-3-yl)methyl)-7-(1-methoxypropan-2-yl)-6-methyl-7H-pyrrolo[2,3-d]pyrimidine-5-carboxamide], for which the IC50 at EZH2 (rPRC2) (setting [2]) is less than 0.1 µM; against Y641N EZH2 (setting [3]), 0.1 to 1 µM. In addition, the EC50 in test [1] (HeLa, 96 h) is 0.4 to 2 µM.
Turning to `COc1cc(C)[nH]c(=O)c1CNC(=O)c1c(C)n(C(C)C2CCCNC2)c2ccccc12` (stereo not drawn) [Compound 315, N-((4-methoxy-6-methyl-2-oxo-1,2-dihydropyridin-3-yl)methyl)-2-methyl-1-(1-(piperidin-3-yl)ethyl)-1H-indole-3-carboxamide], the IC50 against EZH2 (rPRC2) (setting [2]) is less than 0.1 µM; against Y641N EZH2 (setting [3]), 0.1 to 1 µM. Also, the EC50 in test [1] (HeLa, 96 h) was greater than 10 µM.
For the compound `COc1cc(C)[nH]c(=O)c1CNC(=O)c1c(C)n(C(C)C2CCCN(S(C)(=O)=O)C2)c2ccccc12` (stereo not drawn) [Compound 318], the IC50 on EZH2 (rPRC2) (setting [2]) and against Y641N EZH2 (setting [3]) was less than 0.1 µM each time. In addition, the EC50 in test [1] (HeLa, 96 h) is greater than 10 µM.
